Data on 17 molecules can be found in US20120220537A1, “9-AMINOACRIDINE DERIVATIVES, THEIR PREPARATION AND USES” (ARIEL-UNIVERSITY RESEARCH AND DEVELOPMENT COMPANY LTD., priority 2009, published 2012).

“Also recorded” adds a separate entry of the source. Read-outs that look alike come from different tables or passages of the source.

Common to all, as to format: cell-based
For one data set, the system named is MCF-7 (breast cancer). In words: In vitro cytotoxicity, neutral red uptake. The note with it: MCF7 wt cells, 24 h treatment, read-out: anticancer activity (IC50) MCF7 wt. The protocol:
(§1) Cells (250000/well) were cultured in 24-well plates for 24 h to 70-80% confluence or cells (20000/well) were cultured in 96-well plates for 24 h or overnight to 70-80% confluence. Four 24-well plates and one 96-well plate have been seeded. The following concentrations of the compounds were examined (each one in triplicate)-0 microgram/μl, 0.05 microgram/ml, 0.5 microgram/ml, 5 microgram/ml, 50 microgram/ml. The volume of wells in 24-well plates was 0.5 ml while that of 96-well plates was 0.1 ml. After the 24 h treatment the culture medium in the wells were replaced with 0.5 ml fresh medium containing 1:100 dilution of neutral red (10 microliters/1 ml). The plates were incubated for 2 h in a dark in culture incubator. The medium was aspirated and the cells washed twice with 0.5/0.1 ml of solution containing 1% CaCl2 and 0.5% formaldehyde. The dye was extracted from cells upon addition of 0.5/0.1 ml 1% glacial acetic acid in 50% ethanol with 10 min incubation at room temperature. The absorbance was measured spectrophotometrically at a wavelength of 540 nm. The background absorbance measurement of the multiwell plates was done at 690 nm and subtract from 540 nm.

For another data set, the system named is HT29 (colon carcinoma). In words: In vitro cytotoxicity, neutral red uptake. The note with it: 24 h treatment, read-out: anticancer activity (IC50) HT29. As for the experimental part: as §1
In data set [1] the test system is MCF-7mito (mitoxantrone selected and associated with MDR phenomena breast cancer). Briefly: In vitro cytotoxicity, neutral red uptake. The following applies: read-out: anticancer activity (IC50) MCF7 mito. As for the experimental part: as §1
Data set [2] has as its system NCI-ADR (associated with multidrug resistance (MDR) phenomena ovarian cancer). Briefly: In vitro cytotoxicity, neutral red uptake. The following applies: NCIADR cells, 24 h treatment, read-out: anticancer activity (IC50) NCIADR. As for the experimental part: as §1
In the next data set the test system is OVCAR8 (ovarian cancer). In words: In vitro cytotoxicity, neutral red uptake. The note with it: 24 h treatment, read-out: anticancer activity (IC50) OVCAR8. As for the experimental part: as §1
The next data set concerns H1299 (lung carcinoma). In words: In vitro cytotoxicity, neutral red uptake. The note with it: 24 h treatment, read-out: anticancer activity (IC50) H1299. The protocol:
as §1

Data set [3] relates to MDM-MD-A31 (renal cancer). In words: In vitro cytotoxicity, neutral red uptake. The note with it: MDM-MD-A31 cells, 24 h treatment, read-out: anticancer activity (IC50) MDM-MD-A31. The protocol: as §1
The subject of data set [4] is cancer cell lines MDM-MD-A31, MCF-7, HT29, OVCAR8, NCI-ADR, MCF-7mito and H1299. In words: In vitro cytotoxicity, all tested cancer cell lines. The following applies: statement in words. The protocol:
as §1

Setting [5] is: Homo sapiens, HT-29, HT29 cells.
Setting [6] is: Homo sapiens, MCF7 mito cells, 24 h treatment, neutral red.
[7] abbreviates: Homo sapiens, OVCAR-8, OVCAR8 cells.
Where [8] appears, read: Homo sapiens, NCI-H1299, H1299 cells.

Usually IC50 stands for the concentration at which inhibition is half-maximal. As for `Nc1c2ccccc2nc2ccccc12` [9-aminoacridine], the IC50 turned out to be 11.2 µM in the data set with MCF-7 (breast cancer) (Homo sapiens); 2.25 µM in the data set on HT29 (colon carcinoma) (setting [5]); 163 µM in data set [1] (setting [6]); 21 µM in data set [2] (Homo sapiens, NCI/ADR-RES); 1.7 µM in the data set with OVCAR8 (ovarian cancer) (setting [7]); 32.8 µM in the data set on H1299 (lung carcinoma) (setting [8]). The IC50 in data set [3] is 1.5 µM.
As to `O=C(O)c1ccccc1CNc1c2ccccc2nc2ccccc12` [Compound 1, 2-(acridin-9-ylaminomethyl)benzoic acid], the “cytotoxicity compared with reference or other tested compounds” value in data set [4] is recorded as “more cytotoxic than the corresponding 9-aminoacridine”. Besides, the IC50 was determined as 20.2 µM in the data set on MCF-7 (breast cancer) (Homo sapiens); 1.2 µM in the data set with HT29 (colon carcinoma) (setting [5]); 0.76 µM in data set [1] (setting [6]); 12.2 µM in data set [2] (Homo sapiens, NCI/ADR-RES); 0.71 µM in the data set with OVCAR8 (ovarian cancer) (setting [7]); 74.3 µM with H1299 (lung carcinoma) (setting [8]). Besides, the IC50 in data set [3] was 10.3 µM.
On to `O=[N+]([O-])c1ccc(O)cc1CNc1c2ccccc2nc2ccccc12` [Compound 4, N-(2-nitro-5-hydroxy-benzyl)acridin-9-amine], for which the half-maximal inhibitory concentration (IC50) in the data set on MCF-7 (breast cancer) (Homo sapiens) was 58.6 µM; with HT29 (colon carcinoma) (setting [5]), 7.14 µM; in data set [1] (setting [6]), 18.4 µM; in data set [2] (Homo sapiens, NCI/ADR-RES), 86.4 µM; with OVCAR8 (ovarian cancer) (setting [7]) it was 15.4 µM; with H1299 (lung carcinoma) (setting [8]) it was > 100 µM. The IC50 in data set [3] is 75.6 µM.
Take `Oc1ccc2ccccc2c1CNc1c2ccccc2nc2ccccc12` [Compound 8, N-(2-hydroxy-naphthylmethyl)acridin-9-amine]: the IC50 in the data set with MCF-7 (breast cancer) (Homo sapiens) was 14.1 µM; with HT29 (colon carcinoma) (setting [5]) it was 2.6 µM; in data set [1] (setting [6]), 1.8 µM; in data set [2] (Homo sapiens, NCI/ADR-RES), 42.3 µM; in the data set on OVCAR8 (ovarian cancer) (setting [7]), 9.1 µM; in the data set with H1299 (lung carcinoma) (setting [8]), 62.6 µM. Besides, the IC50 in data set [3] is 13.2 µM.
As to `O=[N+]([O-])c1ccccc1Nc1c2ccccc2nc2ccccc12` [Compound 10, N-(2-nitrophenyl)acridin-9-amine], the IC50 in the data set on MCF-7 (breast cancer) (Homo sapiens) is > 100 µM; in the data set with HT29 (colon carcinoma) (setting [5]) it was 74.2 µM; in data set [1] (setting [6]), 46.7 µM; in data set [2] (Homo sapiens, NCI/ADR-RES), 40.3 µM; with OVCAR8 (ovarian cancer) (setting [7]), > 100 µM; with H1299 (lung carcinoma) (setting [8]) it was > 100 µM. For the same molecule, the IC50 in data set [3] is > 100 µM.
Regarding `O=[N+]([O-])c1ccc(Nc2c3ccccc3nc3ccccc23)c([N+](=O)[O-])c1` [Compound 12, N-(2,4-dinitrophenyl)acridin-9-amine], the IC50 with MCF-7 (breast cancer) (Homo sapiens) is 89.1 µM; in the data set with HT29 (colon carcinoma) (setting [5]), 71.3 µM; in data set [1] (Homo sapiens, MCF7, 24 h) it was 7.2 µM; in data set [2] (Homo sapiens, NCI/ADR-RES), 15.4 µM; in the data set with OVCAR8 (ovarian cancer) (setting [7]), 33.8 µM; in the data set with H1299 (lung carcinoma) (setting [8]) it was > 100 µM. Further, in data set [3], the IC50 was > 100 µM.
As for `O=C(O)c1ccc(Nc2c3ccccc3nc3ccccc23)c([N+](=O)[O-])c1` [Compound 13, 4-(acridin-9-ylamino)-3-nitrobenzoic acid], the “cytotoxicity compared with reference or other tested compounds” value in data set [4] is “more cytotoxic than the corresponding 9-aminoacridine”. Further, the IC50 in the data set with MCF-7 (breast cancer) (Homo sapiens) amounted to 11.6 µM; in the data set on HT29 (colon carcinoma) (setting [5]), 3.6 µM; in data set [1] (setting [6]) it was 7.2 µM; in data set [2] (Homo sapiens, NCI/ADR-RES) it was 54.2 µM; with OVCAR8 (ovarian cancer) (setting [7]) it was 6.5 µM; with H1299 (lung carcinoma) (setting [8]) it was 86.4 µM. The IC50 in data set [3] came to 0.6 µM.
With `NC(=O)c1ccc(Nc2c3ccccc3nc3ccccc23)c([N+](=O)[O-])c1` [Compound 14, 4-(acridin-9-ylamino)-3-nitrobenzamide], the values for the IC50 (in the data set with HT29 (colon carcinoma) (setting [5]); in data set [1] (setting [6]); in data set [3]) were 3.6 µM, 7.2 µM and 0.6 µM, respectively.
For the molecule `O=[N+]([O-])c1cc([N+](=O)[O-])c(Nc2c3ccccc3nc3ccccc23)cc1F` [Compound 18, N-(2,4-dinitro-5-fluorophenyl)acridin-9-amine], the IC50 in data set [3] came to 0.3 µM.
On to `COc1cc([N+](=O)[O-])ccc1Nc1c2ccccc2nc2ccccc12` [Compound 20, N-(2-methoxy-4-nitrophenyl)acridin-9-amine], for which the IC50 with HT29 (colon carcinoma) (setting [5]) is 1.2 µM; in the data set with OVCAR8 (ovarian cancer) (setting [7]), 0.6 µM; in data set [3], 0.1 µM.
As to `O=[N+]([O-])c1cccnc1Nc1c2ccccc2nc2ccccc12` [Compound 21, N-(3-nitropyrid-2-yl)acridin-9-amine], the values for the IC50 (in data set [1] (setting [6]); in the data set with H1299 (lung carcinoma) (setting [8]); in data set [3]) were 1.6 µM, 0.7 µM and 0.8 µM, respectively.
Turning to `O=C1C(Br)=C(Br)C(=O)C(Nc2c3ccccc3nc3ccccc23)=C1Br` [Compound 38, 2-(acridin-9-ylamino)-3,5,6-tribromobenzoquinone], in the data set on OVCAR8 (ovarian cancer) (setting [7]), the IC50 amounted to 3.7 µM.
On to `O=C1C(Cl)=C(Nc2c3ccccc3nc3ccccc23)C(=O)c2ccccc21` [Compound 39, 2-(acridin-9-ylamino)-3-chloronaphthoquinone], for which the IC50 in data set [1] (setting [6]) was 0.8 µM; in the data set with OVCAR8 (ovarian cancer) (setting [7]) it was 1.2 µM; in data set [3], 0.15 µM.
Regarding `CCOC1=C(Nc2c3ccccc3nc3ccccc23)C(=O)c2c(O)ccc(O)c2C1=O` [Compound 41, 2-(acridin-9-ylamino)-3-ethoxy-5,8-dihydroxy-naphthoquinone], the “cytotoxicity compared with reference or other tested compounds” value in data set [4] is recorded as “greater activity against all above mentioned cell lines than the anticancer drug amsacrine; also recorded: the most potent among the tested compounds”. Also, the IC50 worked out at 1.1 µM in the data set on HT29 (colon carcinoma) (setting [5]), 0.5 µM in data set [1] (setting [6]), 0.14 µM in the data set with H1299 (lung carcinoma) (setting [8]) and 0.06 µM in data set [3].
For `O=C(NC(CO)C(=O)O)c1ccc(Nc2c3ccccc3nc3ccccc23)c([N+](=O)[O-])c1` (stereo not drawn) [Compound 42, (2-(4-(acridin-9-ylamino)-3-nitrobenzamido)-3-hydroxypropanoic acid)], the IC50 in the data set with HT29 (colon carcinoma) (setting [5]) was 2.2 µM; in data set [1] (setting [6]) it was 4.5 µM; in data set [3] it was 0.4 µM.
On to `NCCCCC(NC(=O)c1ccc(Nc2c3ccccc3nc3ccccc23)c([N+](=O)[O-])c1)C(N)=O` (stereo not drawn) [Compound 46, 4-(acridin-9-ylamino)-N-(1,6-diamino-1-oxohex-2-yl)-3-nitro-benzamide], for which the IC50 in the data set with MCF-7 (breast cancer) (Homo sapiens) is 58.6 µM; with HT29 (colon carcinoma) (setting [5]) it was 7.14 µM; in data set [1] (setting [6]), 18.4 µM; in data set [2] (Homo sapiens, NCI/ADR-RES), 86.4 µM; with OVCAR8 (ovarian cancer) (setting [7]), 15.4 µM; in the data set with H1299 (lung carcinoma) (setting [8]), > 100 µM. In data set [3], the IC50 was 75.6 µM.
With amsacrine [reference compound], the IC50 with MCF-7 (breast cancer) was determined as 19.8 µM; in the data set on HT29 (colon carcinoma) (HT29 cells) it was 2.2 µM; in data set [1] (MCF7 mito cells, 24 h treatment, neutral red), 1.5 µM; in data set [2], 16.1 µM; in the data set on OVCAR8 (ovarian cancer) (OVCAR8 cells) it was 21.9 µM; in the data set with H1299 (lung carcinoma) (H1299 cells) it was 119 µM. Further, in data set [3], the IC50 worked out at 17.2 µM.
